# Assay results from patent publication US20250290117A1, “MOLECULAR PHENOTYPIC ANTIMICROBIAL SUSCEPTIBILITY TESTING” (priority 2024, published 2025).
# Legend:
# Assay type in all cases: cell-based
# [1] = tested on: pathogens of clinical samples; experiment: Molecular phenotypic antimicrobial susceptibility test of clinical samples, direct PCR without a separate DNA purification step (Table 6)
# How it was run: (§1)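 Semi-quantitative PCR measures growth after exposure, so sensitivity means prevented growth and resistance means allowed growth. Exposure lasts 12-16 hours at single or multiple breakpoint concentrations in Mueller Hinton Broth, with the inoculum at 0.5 McFarland.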
# [2] = tested on: pathogens of clinical samples; experiment: Molecular phenotypic antimicrobial susceptibility test of clinical samples, extraction DNA purification step prior to PCR (Table 6)
# How it was run: as §1
# Escherichia coli [3] = experiment: Traditional culture-based antimicrobial susceptibility test
# How it was run: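 E. coli isolates underwent conventional growth, isolation and exposure to antimicrobials, giving a culture-based susceptibility call for each agent.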
# Escherichia coli [4] = experiment: Molecular phenotypic antimicrobial susceptibility test (extraction or DNA purification prior to PCR)
# How it was run: as §1
# [5] = E. coli, clinical sample of r10-r24
# [6] = E. coli, clinical sample of r10-r24, Ct control avg 12.97
# [7] = E. coli, clinical sample of r158-r172
# [8] = E. coli, clinical sample of r158-r172, Ct control avg 12.894
# [9] = K. aerogenes, clinical sample of r136-r150
# [10] = K. aerogenes, clinical sample of r136-r150, Ct control avg 13.854
# [11] = K. pneumoniae, clinical sample of r121-r135
# [12] = K. pneumoniae, clinical sample of r121-r135, Ct control avg […]
# [13] = M. morganii, clinical sample of r55-r69
# [14] = M. morganii, clinical sample of r55-r69, Ct control avg 12.09
# [15] = M. morganii, clinical sample of r70-r84
# [16] = M. morganii, clinical sample of r70-r84, Ct control avg 11.677
# [17] = P. mirabilis, clinical sample of r25-r39
# [18] = P. mirabilis, clinical sample of r25-r39, Ct control avg 11.801
# [19] = P. mirabilis, clinical sample of r40-r54
# [20] = P. mirabilis, clinical sample of r40-r54, Ct control avg 10.06
# [21] = S. aureus, clinical sample of r85-r92
# [22] = E. coli, clinical sample of r10-r24, Ct Control Avg 18.112
# [23] = E. coli, clinical sample of r158-r172, Ct Control Avg 20.146
# [24] = K. aerogenes, clinical sample of r136-r150, Ct Control Avg 19.994
# [25] = K. pneumoniae, clinical sample of r121-r135, Ct Control Avg 24.272
# [26] = M. morganii, clinical sample of r55-r69, Ct Control Avg 28.86
# [27] = M. morganii, clinical sample of r70-r84, Ct Control Avg 27.053
# [28] = P. mirabilis, clinical sample of r25-r39, Ct Control Avg 26.064
# [29] = P. mirabilis, clinical sample of r40-r54, Ct Control Avg 26.987
# [30] = E. coli isolate 4, Ct at control (average) 17.5733
# [31] = E. coli isolate 4, at sensitive breakpoint
# [32] = E. coli isolate 5, Ct at control (average) 21.0933
# [33] = E. coli isolate 5, at sensitive breakpoint
smiles,measurement,setting,value
CO[C@@]1(NC(=O)Cc2cccs2)C(=O)N2C(C(=O)O)=C(COC(N)=O)CS[C@@H]21 [Cefoxitin],Molecular Antibiotic Susceptibility Result,[1]; [5],Sensitive (Antimicrobial wells with pathogen load detected below the control wells (typically >2 cycle thresholds later) may be reported as Sensitive)
same,Ct,[1]; [6],25.006
same,Molecular Antibiotic Susceptibility Result,[1]; [7],Sensitive (Antimicrobial wells with pathogen load detected below the control wells (typically >2 cycle thresholds later) may be reported as Sensitive)
same,Ct,[1]; [8],29.986
same,Molecular Antibiotic Susceptibility Result,[1]; [9],Resistant
same,Ct,[1]; [10],13.468
same,Molecular Antibiotic Susceptibility Result,[1]; [11],Sensitive (Antimicrobial wells with pathogen load detected below the control wells (typically >2 cycle thresholds later) may be reported as Sensitive)
same,Ct,[1]; [12],27.384
same,Molecular Antibiotic Susceptibility Result,[1]; [13],Sensitive (Antimicrobial wells with pathogen load detected below the control wells (typically >2 cycle thresholds later) may be reported as Sensitive)
same,Ct,[1]; [14],29.041
same,Molecular Antibiotic Susceptibility Result,[1]; [15],Sensitive (Antimicrobial wells with pathogen load detected below the control wells (typically >2 cycle thresholds later) may be reported as Sensitive)
same,Ct,[1]; [16],29.107
same,Molecular Antibiotic Susceptibility Result,[1]; [17],Sensitive (Antimicrobial wells with pathogen load detected below the control wells (typically >2 cycle thresholds later) may be reported as Sensitive)
same,Ct,[1]; [18],27.055
same,Molecular Antibiotic Susceptibility Result,[1]; [19],Sensitive (Antimicrobial wells with pathogen load detected below the control wells (typically >2 cycle thresholds later) may be reported as Sensitive)
same,Ct,[1]; [20],26.904
same,Molecular Antibiotic Susceptibility Result,[1]; [21],Resistant
same,Ct,"[1]; S. aureus, clinical sample of r85-r92, Ct control avg 20.309",20.586
same,Molecular Antibiotic Susceptibility Result,[2]; [5],Sensitive (Antimicrobial wells with pathogen load detected below the control wells (typically >2 cycle thresholds later) may be reported as Sensitive)
same,Ct,[2]; [22],26.364
same,Molecular Antibiotic Susceptibility Result,[2]; [7],Sensitive (Antimicrobial wells with pathogen load detected below the control wells (typically >2 cycle thresholds later) may be reported as Sensitive)
same,Ct,[2]; [23],31.631
same,Molecular Antibiotic Susceptibility Result,[2]; [9],Resistant
same,Ct,[2]; [24],20.635
same,Molecular Antibiotic Susceptibility Result,[2]; [11],Sensitive (Antimicrobial wells with pathogen load detected below the control wells (typically >2 cycle thresholds later) may be reported as Sensitive)
same,Ct,[2]; [25],32.55
same,Molecular Antibiotic Susceptibility Result,[2]; [13],Sensitive (Antimicrobial wells with pathogen load detected below the control wells (typically >2 cycle thresholds later) may be reported as Sensitive)
same,Ct,[2]; [26],37.168
same,Molecular Antibiotic Susceptibility Result,[2]; [15],Sensitive (Antimicrobial wells with pathogen load detected below the control wells (typically >2 cycle thresholds later) may be reported as Sensitive)
same,Ct,[2]; [27],35.243
same,Molecular Antibiotic Susceptibility Result,[2]; [17],Sensitive (Antimicrobial wells with pathogen load detected below the control wells (typically >2 cycle thresholds later) may be reported as Sensitive)
same,Ct,[2]; [28],29.443
same,Molecular Antibiotic Susceptibility Result,[2]; [19],Sensitive (Antimicrobial wells with pathogen load detected below the control wells (typically >2 cycle thresholds later) may be reported as Sensitive)
same,Ct,[2]; [29],30.603
same,Molecular Antibiotic Susceptibility Result,[2]; [21],Resistant
same,Ct,"[2]; S. aureus, clinical sample of r85-r92, Ct Control Avg 24.32",15.037
same,Traditional Culture Result,Escherichia coli [3]; E. coli isolate 4 (Table 3),Sensitive
same,Traditional Culture Result,Escherichia coli [3]; E. coli isolate 5 (Table 3),Sensitive
same,Ct at Sensitive Breakpoint,Escherichia coli [4]; [30],24.09
same,Molecular Antimicrobial Susceptibility Result,Escherichia coli [4]; [31],Sensitive (Antimicrobial wells with pathogen load detected below the control wells (typically >2 cycle thresholds later) may be reported as Sensitive)
same,Ct at Sensitive Breakpoint,Escherichia coli [4]; [32],24.72
same,Molecular Antimicrobial Susceptibility Result,Escherichia coli [4]; [33],Sensitive (Antimicrobial wells with pathogen load detected below the control wells (typically >2 cycle thresholds later) may be reported as Sensitive)
CO/N=C(\C(=O)N[C@@H]1C(=O)N2C(C(=O)O)=C(CSc3nc(=O)c(=O)[nH]n3C)CS[C@H]12)c1csc(N)n1 [Ceftriaxone],Molecular Antibiotic Susceptibility Result,[1]; [5],Sensitive (Antimicrobial wells with pathogen load detected below the control wells (typically >2 cycle thresholds later) may be reported as Sensitive)
same,Ct,[1]; [6],24.791
same,Molecular Antibiotic Susceptibility Result,[1]; [7],Sensitive (Antimicrobial wells with pathogen load detected below the control wells (typically >2 cycle thresholds later) may be reported as Sensitive)
same,Ct,[1]; [8],30.396
same,Molecular Antibiotic Susceptibility Result,[1]; [9],Sensitive (Antimicrobial wells with pathogen load detected below the control wells (typically >2 cycle thresholds later) may be reported as Sensitive)
same,Ct,[1]; [10],29.137
same,Molecular Antibiotic Susceptibility Result,[1]; [11],Sensitive (Antimicrobial wells with pathogen load detected below the control wells (typically >2 cycle thresholds later) may be reported as Sensitive)
same,Ct,[1]; [12],28.004
same,Molecular Antibiotic Susceptibility Result,[1]; [13],Sensitive (Antimicrobial wells with pathogen load detected below the control wells (typically >2 cycle thresholds later) may be reported as Sensitive)
same,Ct,[1]; [14],29.28
same,Molecular Antibiotic Susceptibility Result,[1]; [15],Sensitive (Antimicrobial wells with pathogen load detected below the control wells (typically >2 cycle thresholds later) may be reported as Sensitive)
same,Ct,[1]; [16],28.625
same,Molecular Antibiotic Susceptibility Result,[1]; [17],Sensitive (Antimicrobial wells with pathogen load detected below the control wells (typically >2 cycle thresholds later) may be reported as Sensitive)
same,Ct,[1]; [18],22.976
same,Molecular Antibiotic Susceptibility Result,[1]; [19],Sensitive (Antimicrobial wells with pathogen load detected below the control wells (typically >2 cycle thresholds later) may be reported as Sensitive)
same,Ct,[1]; [20],28.394
same,Molecular Antibiotic Susceptibility Result,[2]; [5],Sensitive (Antimicrobial wells with pathogen load detected below the control wells (typically >2 cycle thresholds later) may be reported as Sensitive)
same,Ct,[2]; [22],26.029
same,Molecular Antibiotic Susceptibility Result,[2]; [7],Sensitive (Antimicrobial wells with pathogen load detected below the control wells (typically >2 cycle thresholds later) may be reported as Sensitive)
same,Ct,[2]; [23],29.851
same,Molecular Antibiotic Susceptibility Result,[2]; [9],Sensitive (Antimicrobial wells with pathogen load detected below the control wells (typically >2 cycle thresholds later) may be reported as Sensitive)
same,Ct,[2]; [24],33.124
same,Molecular Antibiotic Susceptibility Result,[2]; [11],Sensitive (Antimicrobial wells with pathogen load detected below the control wells (typically >2 cycle thresholds later) may be reported as Sensitive)
same,Ct,[2]; [25],33.145
same,Molecular Antibiotic Susceptibility Result,[2]; [13],Sensitive (Antimicrobial wells with pathogen load detected below the control wells (typically >2 cycle thresholds later) may be reported as Sensitive)
same,Ct,[2]; [26],35.749
same,Molecular Antibiotic Susceptibility Result,[2]; [15],Sensitive (Antimicrobial wells with pathogen load detected below the control wells (typically >2 cycle thresholds later) may be reported as Sensitive)
same,Ct,[2]; [27],36.141
same,Molecular Antibiotic Susceptibility Result,[2]; [17],Sensitive (Antimicrobial wells with pathogen load detected below the control wells (typically >2 cycle thresholds later) may be reported as Sensitive)
same,Ct,[2]; [28],29.277
same,Molecular Antibiotic Susceptibility Result,[2]; [19],Sensitive (Antimicrobial wells with pathogen load detected below the control wells (typically >2 cycle thresholds later) may be reported as Sensitive)
same,Ct,[2]; [29],32.789
same,Traditional Culture Results,Escherichia coli [3]; E. coli #1 - WDCM 00090 - 6.2×E3,Sensitive
same,Traditional Culture Results,Escherichia coli [3]; E. coli #2 - WDCM 00090 - 6.2×E3,Sensitive
same,Traditional Culture Result,Escherichia coli [3]; E. coli isolate 1 (Table 3),Resistant
same,Traditional Culture Result,Escherichia coli [3]; E. coli isolate 2 (Table 3),Resistant
same,Traditional Culture Result,Escherichia coli [3]; E. coli isolate 3 (Table 3),Resistant
same,Traditional Culture Result,Escherichia coli [3]; E. coli isolate 4 (Table 3),Resistant
same,Traditional Culture Result,Escherichia coli [3]; E. coli isolate 5 (Table 3),Sensitive
same,Traditional Culture Result,Escherichia coli [3]; E. coli isolate JJ1887,Resistant
same,Ct at Sensitive Breakpoint,"Escherichia coli [4]; E. coli isolate 1, Ct at control (average) 21.238",19.368
same,Molecular Antimicrobial Susceptibility Result,"Escherichia coli [4]; E. coli isolate 1, at sensitive breakpoint",Resistant
same,Ct at Sensitive Breakpoint,"Escherichia coli [4]; E. coli isolate 2, Ct at control (average) 21.270",20.665
same,Molecular Antimicrobial Susceptibility Result,"Escherichia coli [4]; E. coli isolate 2, at sensitive breakpoint",Resistant
same,Ct at Sensitive Breakpoint,"Escherichia coli [4]; E. coli isolate 3, Ct at control (average) 22.0995",18.979
same,Molecular Antimicrobial Susceptibility Result,"Escherichia coli [4]; E. coli isolate 3, at sensitive breakpoint",Resistant
same,Ct at Sensitive Breakpoint,Escherichia coli [4]; [30],17.74
same,Molecular Antimicrobial Susceptibility Result,Escherichia coli [4]; [31],Resistant
same,Ct at Sensitive Breakpoint,Escherichia coli [4]; [32],25.48
same,Molecular Antimicrobial Susceptibility Result,Escherichia coli [4]; [33],Sensitive (Antimicrobial wells with pathogen load detected below the control wells (typically >2 cycle thresholds later) may be reported as Sensitive)
